Experiments:
[1] = target: T1, Neuronal acetylcholine receptor; alpha3/beta4 (Rattus norvegicus, UniProt P04757+P12392); assay: Antagonist activity at rat alpha3beta4 nAChR expressed in HEK293 cells by FMP assay; format: functional, cell-based, Homo sapiens; conditions: for pIC50: hek293
[2] = target: T2, Neuronal acetylcholine receptor subunit alpha-7 (Homo sapiens, UniProt P36544); assay: Displacement of [3H]methyllycaconitine from human alpha-7 in tsA201 cells coexpressed with 5HT3A receptor; format: cell-based
[3] = target: T1, Neuronal acetylcholine receptor; alpha3/beta4; assay: Displacement of [3H]epibatidine from recombinant rat alpha-3-beta-4 nAChr in HEK293 cell line; format: cell-based; conditions: for pKi: hek293
[4] = target: Neuronal acetylcholine receptor; alpha4/beta2 (Rattus norvegicus, UniProt P09483+P12390); assay: Displacement of [3H]epibatidine from rat recombinant alpha-4-beta-2 nAChR in HEK293 cell line; format: cell-based; conditions: for pKi: hek293; for Ki: read-out: Ki
[5] = target: T2, Neuronal acetylcholine receptor subunit alpha-7; assay: Antagonist activity at human alpha-7 nAChR in tsA201 cells coexpressed with Ric3 by FMP assay; format: functional, cell-based
[6] = target: Neuronal acetylcholine receptor; alpha4/beta4 (Rattus norvegicus, UniProt P09483+P12392); assay: Displacement of [3H]epibatidine from recombinant rat alpha-4-beta-4 nAChr in HEK293 cell line; format: cell-based; conditions: for pKi: hek293
cells = format: functional, cell-based; conditions: Homo sapiens, HEK293
[7] = target: T3, Glycine receptor subunit alpha-1 (Homo sapiens, UniProt P23415); assay: Antagonist activity at human glycine alpha-1 receptor in HEK293 cells by FMP assay; format: functional, cell-based; conditions: for pIC50: hek293
T3 sequence (P23415 whole entry): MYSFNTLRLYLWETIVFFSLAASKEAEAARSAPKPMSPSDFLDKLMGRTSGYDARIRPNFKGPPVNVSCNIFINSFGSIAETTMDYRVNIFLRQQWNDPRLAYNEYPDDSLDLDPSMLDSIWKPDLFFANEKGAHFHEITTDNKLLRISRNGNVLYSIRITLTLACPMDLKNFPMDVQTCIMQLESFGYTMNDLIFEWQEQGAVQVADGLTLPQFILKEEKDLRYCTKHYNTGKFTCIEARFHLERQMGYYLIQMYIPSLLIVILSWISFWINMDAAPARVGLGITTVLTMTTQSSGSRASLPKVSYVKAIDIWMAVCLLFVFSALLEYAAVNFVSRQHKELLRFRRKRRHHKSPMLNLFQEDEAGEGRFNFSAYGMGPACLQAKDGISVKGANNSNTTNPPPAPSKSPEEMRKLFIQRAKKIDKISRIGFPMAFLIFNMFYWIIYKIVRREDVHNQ

[8] = target: T2, Neuronal acetylcholine receptor subunit alpha-7; assay: Displacement of [3H]methyllycaconitine from alpha7 nAChR in tsA201 cells co-expressed with Ric3; format: cell-based
[9] = target: T4, 5-hydroxytryptamine receptor 3A (Homo sapiens, UniProt P46098); assay: Displacement of [3H]GR65630 from human 5HT3A receptor in HEK293 cells; format: cell-based; conditions: for pKi: hek293
T4 sequence (P46098 whole entry): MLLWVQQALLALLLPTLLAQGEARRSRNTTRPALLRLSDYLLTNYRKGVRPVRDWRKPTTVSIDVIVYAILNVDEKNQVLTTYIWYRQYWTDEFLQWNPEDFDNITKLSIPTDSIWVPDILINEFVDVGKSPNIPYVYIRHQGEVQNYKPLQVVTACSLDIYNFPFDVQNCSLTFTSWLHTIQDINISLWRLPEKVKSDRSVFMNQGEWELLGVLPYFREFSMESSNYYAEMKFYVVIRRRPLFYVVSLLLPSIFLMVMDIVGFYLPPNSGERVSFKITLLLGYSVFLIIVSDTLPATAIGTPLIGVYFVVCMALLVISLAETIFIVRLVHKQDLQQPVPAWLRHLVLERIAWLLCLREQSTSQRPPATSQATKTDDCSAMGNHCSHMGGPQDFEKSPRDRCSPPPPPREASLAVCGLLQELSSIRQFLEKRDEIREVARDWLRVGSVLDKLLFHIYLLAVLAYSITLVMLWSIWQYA

[10] = target: T4, 5-hydroxytryptamine receptor 3A; assay: Antagonist activity at human 5HT3A receptor expressed in HEK293 cells by FMP assay; format: functional, cell-based; conditions: for pIC50: hek293

T1 sequence (P04757 whole entry): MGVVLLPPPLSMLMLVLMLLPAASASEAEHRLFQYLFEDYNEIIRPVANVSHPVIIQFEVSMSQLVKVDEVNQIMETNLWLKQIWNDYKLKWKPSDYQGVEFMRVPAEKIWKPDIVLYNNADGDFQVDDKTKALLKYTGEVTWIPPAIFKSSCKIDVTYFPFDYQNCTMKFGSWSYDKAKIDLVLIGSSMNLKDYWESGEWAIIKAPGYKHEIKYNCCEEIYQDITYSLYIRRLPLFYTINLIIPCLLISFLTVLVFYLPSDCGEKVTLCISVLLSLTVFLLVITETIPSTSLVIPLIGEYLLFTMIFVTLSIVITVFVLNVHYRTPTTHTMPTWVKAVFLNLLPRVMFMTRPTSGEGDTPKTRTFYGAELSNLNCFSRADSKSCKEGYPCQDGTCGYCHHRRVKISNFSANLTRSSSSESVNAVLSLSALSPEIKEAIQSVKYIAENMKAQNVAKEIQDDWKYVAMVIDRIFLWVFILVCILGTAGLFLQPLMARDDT
T1 sequence (P12392 whole entry): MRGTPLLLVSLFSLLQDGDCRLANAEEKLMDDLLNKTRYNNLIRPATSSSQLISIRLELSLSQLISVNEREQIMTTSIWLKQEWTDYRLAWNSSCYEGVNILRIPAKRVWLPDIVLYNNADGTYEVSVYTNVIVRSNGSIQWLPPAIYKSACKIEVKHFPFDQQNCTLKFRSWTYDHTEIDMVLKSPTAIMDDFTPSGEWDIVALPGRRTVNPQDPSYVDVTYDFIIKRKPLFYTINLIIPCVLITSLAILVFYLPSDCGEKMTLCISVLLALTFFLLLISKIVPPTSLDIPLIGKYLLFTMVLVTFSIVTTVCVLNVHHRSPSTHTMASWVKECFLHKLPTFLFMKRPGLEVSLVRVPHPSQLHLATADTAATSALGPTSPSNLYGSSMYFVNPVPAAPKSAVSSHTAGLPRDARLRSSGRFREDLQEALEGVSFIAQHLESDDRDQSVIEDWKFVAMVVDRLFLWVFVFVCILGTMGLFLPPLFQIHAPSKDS
T2 sequence (P36544 whole entry): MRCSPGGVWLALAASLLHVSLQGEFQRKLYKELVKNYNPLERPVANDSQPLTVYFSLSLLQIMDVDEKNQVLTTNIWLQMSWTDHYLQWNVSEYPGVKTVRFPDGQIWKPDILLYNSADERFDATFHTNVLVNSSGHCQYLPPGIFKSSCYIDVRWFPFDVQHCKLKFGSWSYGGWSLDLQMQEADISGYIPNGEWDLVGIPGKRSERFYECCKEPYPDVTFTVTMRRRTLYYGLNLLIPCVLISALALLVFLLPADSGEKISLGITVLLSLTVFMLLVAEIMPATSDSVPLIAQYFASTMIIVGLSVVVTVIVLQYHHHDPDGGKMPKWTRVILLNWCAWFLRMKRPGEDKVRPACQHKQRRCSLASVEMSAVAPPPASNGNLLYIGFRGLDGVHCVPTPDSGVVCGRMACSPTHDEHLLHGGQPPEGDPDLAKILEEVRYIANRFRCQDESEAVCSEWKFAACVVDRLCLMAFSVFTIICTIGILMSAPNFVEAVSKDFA
Sequence of Neuronal acetylcholine receptor; alpha4/beta4 (P09483 whole entry): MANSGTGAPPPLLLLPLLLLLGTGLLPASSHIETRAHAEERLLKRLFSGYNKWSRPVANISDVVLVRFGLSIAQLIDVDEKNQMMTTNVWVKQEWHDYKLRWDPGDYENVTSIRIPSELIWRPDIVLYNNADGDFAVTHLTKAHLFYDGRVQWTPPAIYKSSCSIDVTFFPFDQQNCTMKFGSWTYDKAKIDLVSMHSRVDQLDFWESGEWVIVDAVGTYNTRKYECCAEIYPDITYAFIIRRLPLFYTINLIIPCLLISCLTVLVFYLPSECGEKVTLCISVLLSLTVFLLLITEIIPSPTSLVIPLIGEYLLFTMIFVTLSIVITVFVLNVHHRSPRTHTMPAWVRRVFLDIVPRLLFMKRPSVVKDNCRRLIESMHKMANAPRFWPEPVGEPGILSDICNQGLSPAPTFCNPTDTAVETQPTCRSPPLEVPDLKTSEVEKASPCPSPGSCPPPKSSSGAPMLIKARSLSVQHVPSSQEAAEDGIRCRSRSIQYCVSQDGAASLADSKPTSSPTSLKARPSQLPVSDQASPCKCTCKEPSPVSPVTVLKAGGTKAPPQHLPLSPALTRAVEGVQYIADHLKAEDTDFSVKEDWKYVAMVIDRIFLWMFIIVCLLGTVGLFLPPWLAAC
Sequence of Neuronal acetylcholine receptor; alpha4/beta4 (P12392 whole entry): as the sequence (P12392 whole entry) above
Sequence of Neuronal acetylcholine receptor; alpha4/beta2 (P09483 whole entry): as the sequence (P09483 whole entry) above
Sequence of Neuronal acetylcholine receptor; alpha4/beta2 (P12390 whole entry): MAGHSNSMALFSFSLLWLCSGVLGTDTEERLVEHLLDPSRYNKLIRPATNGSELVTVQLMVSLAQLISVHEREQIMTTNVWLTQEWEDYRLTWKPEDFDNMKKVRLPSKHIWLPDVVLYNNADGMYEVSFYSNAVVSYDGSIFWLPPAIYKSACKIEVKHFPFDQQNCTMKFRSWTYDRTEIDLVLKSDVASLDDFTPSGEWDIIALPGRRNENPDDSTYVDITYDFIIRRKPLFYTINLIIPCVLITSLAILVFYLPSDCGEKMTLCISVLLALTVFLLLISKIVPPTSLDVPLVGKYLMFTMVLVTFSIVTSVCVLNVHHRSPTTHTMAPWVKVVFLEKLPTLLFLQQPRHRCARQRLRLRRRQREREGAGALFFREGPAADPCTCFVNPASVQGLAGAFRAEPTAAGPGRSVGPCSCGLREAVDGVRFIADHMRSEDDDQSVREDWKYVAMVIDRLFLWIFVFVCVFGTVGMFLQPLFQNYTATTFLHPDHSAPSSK

Row | Compound | IC50 ([1]; read-out: IC50) | Ki ([2]; read-out: Ki) | Ki ([2]; read-out: pKi (converted)) | Ki [3] | pKi [3] | pKi [4] | Ki [4] | IC50 ([5]; read-out: IC50) | IC50 ([5]; read-out: pIC50 (converted)) | Ki [6] | pKi [6] | IC50 (cells; read-out: IC50) | IC50 (cells; read-out: pIC50 (converted)) | IC50 [7] | pIC50 [7] | Ki ([8]; read-out: Ki) | Ki ([8]; read-out: pKi (converted)) | Ki [9] | IC50 ([10]; read-out: IC50) | pIC50 [1] | other results
1 | C=CC[N+]12CC[C@@H]3[C@@H]4[C@@H]5[C@@H](OCC=C(C1)[C@@H]5C[C@@H]32)N1c2ccccc2[C@@]23CC[N+]5(CC=C)CC6=CCO[C@H]([C@@H]([C@H]12)[C@H]6C[C@@H]35)N4c1ccccc1.[Br-].[Br-] (stereo not given in full) | 100 µM | 0.066 µM | 0.0631 µM | > 100 µM | < 4 | < 4 | > 100 µM | 0.28 µM | 0.282 µM | > 100 µM | < 4 | > 100 µM | > 100 µM | > 100 µM | < 4 | 0.03 µM | 0.0316 µM | 100 µM | 100 µM |  | 
2 | O=[N+]([O-])c1ccc(C[N+]23CCC4[C@@H]5/C(=C\N6c7ccccc7[C@@]78CC[N+]9(Cc%10ccc([N+](=O)[O-])cc%10)CC%10=CCO[C@H]([C@@H]([C@H]67)[C@H]%10C[C@@H]89)N5c5ccccc5)[C@@H](C[C@@H]42)/C(=C\CO)C3)cc1.[Br-].[Br-] (stereo not given in full) | > 100 µM | 0.11 µM | 0.126 µM | > 100 µM | < 4 | < 4 | > 100 µM | 2.5 µM | 2.45 µM | > 100 µM | < 4 | > 100 µM | > 100 µM | > 100 µM | < 4 | 0.098 µM | 0.1 µM | 100 µM | 30 µM | < 4 | 
3 | C=CC[N+]12CC[C@@]34c5ccccc5N5/C=C6/[C@H]7C[C@H]8[C@@]9(CC[N@@+]8(CC=C)C/C7=C/CO)c7ccccc7N(/C=C(/[C@@H](C[C@@H]31)/C(=C\CO)C2)[C@H]54)[C@@H]69 (stereo not given in full) | 18 µM | 2.1 µM | 2 µM | 3.2 µM |  | < 4 | > 100 µM | 4.1 µM | 4.07 µM | > 100 µM | < 4 | > 100 µM | > 100 µM | > 100 µM | < 4 | 1.1 µM | 1 µM | > 100 µM | > 100 µM |  | IC50 ([1]; read-out: pIC50 (converted)): 15.8 µM; pKi [9]: < 4; pIC50 [10]: < 4
4 | C[N+]12CCC34c5ccccc5N5/C=C6/[C@H]7C[C@H]8[C@@]9(CC[N+]8(C)C/C7=C/CO)c7ccccc7N(/C=C(/[C@@H](C[C@@H]31)/C(=C\CO)C2)[C@H]54)[C@@H]69.[Cl-].[Cl-] (stereo not given in full) [TOXIFERINE] | 30 µM | 1.6 µM | 1.58 µM | 30 µM |  | < 4 | > 100 µM | 9.5 µM | 9.55 µM | > 100 µM | < 4 | > 100 µM | > 100 µM | > 100 µM | < 4 | 2.6 µM | 2.51 µM | > 100 µM | > 100 µM |  | pKi [9]: < 4; pIC50 [10]: < 4
5 | CC(=O)OCC[N+]12CC[C@@H]3[C@@H]4[C@@H]5[C@@H](OCC=C(C1)[C@@H]5C[C@@H]32)N1c2ccccc2[C@@]23CC[N+]5(CCOC(C)=O)CC6=CCO[C@H]([C@@H]([C@H]12)[C@H]6C[C@@H]35)N4c1ccccc1.[Br-].[Br-] (stereo not given in full) | > 100 µM | 0.28 µM | 0.251 µM | > 100 µM | < 4 | < 4 | > 100 µM | 1.6 µM | 1.62 µM | > 100 µM | < 4 | > 100 µM | > 100 µM | > 100 µM | < 4 | 0.31 µM | 0.316 µM | > 100 µM | > 100 µM | < 4 | pKi [9]: < 4; pIC50 [10]: < 4
6 | C1=C2C[N+]3(Cc4ccccc4)CC[C@@H]4[C@@H]5[C@H]([C@@H](OC1)N1c6ccccc6[C@@]67CC[N+]8(Cc9ccccc9)CC9=CCO[C@H]([C@@H]([C@H]16)[C@H]9C[C@@H]78)N5c1ccccc1)[C@H]2C[C@@H]43.[Br-].[Br-] (stereo not given in full) | > 100 µM | 0.2 µM | 0.2 µM | > 100 µM | < 4 | < 4 | > 100 µM | 4.5 µM | 4.47 µM | > 100 µM | < 4 | > 100 µM | > 100 µM | > 100 µM | < 4 | 0.25 µM | 0.251 µM | 100 µM | 100 µM | < 4 | 
7 | C1=C2CN3CC[C@@H]4[C@@H]5[C@H]([C@@H](OC1)N1c6ccccc6[C@@]67CCN8CC9=CCO[C@H]([C@@H]([C@H]16)[C@H]9C[C@H]87)N5c1ccccc1)[C@H]2C[C@@H]43 | 11 µM | 1.1 µM |  | 30 µM |  | < 4 | > 100 µM | 1.6 µM | 1.58 µM | > 100 µM | < 4 | > 100 µM | > 100 µM | > 100 µM | < 4 | 1.1 µM | 1 µM | 3.1 µM | 11 µM |  | IC50 ([10]; read-out: pIC50 (converted)): 12.6 µM

Source: ChEMBL document CHEMBL1148788 (J Med Chem, 2007)
